This note sets out measurements from patent US20240239812A1, “MACROCYCLIC 2-ALLYLTETRAHYDROFURANS AS INHIBITORS OF MCL-1” (JANSSEN PHARMACEUTICA NV, priority 2021, published 2024).

Test [1] concerns the target Myeloid Cell Leukemia 1 (Mcl-1) (Homo sapiens (Human), UniProt Q07820). Kind of test: Terbium labeled Mcl-1 HTRF binding assay, displacement of Cy5-labeled BIM BH3 peptide. Conditions: 25 pM Tb-Mcl-1, 8 nM Cy5 Bim peptide, 60 minutes at room temperature, read-out: Tb-MCL1 Ki. Here is the method:
Terbium labeled Myeloid Cell Leukemia 1 (Mcl-1) homogeneous time-resolved fluorescence (HTRF) binding assay utilizing the BIM BH3 peptide (H2N—(C/Cy5Mal) WIAQELRRIGDEFN-OH) as the binding partner for Mcl-1.
This assay evaluated inhibition of the BH3 domain: Mcl-1 interaction by measuring the displacement of Cy5-labeled BIM BH3 peptide (H2N—(C/Cy5Mal) WIAQELRRIGDEFN-OH) in the HTRF assay format.
The following assay and stock buffers were prepared for use in the assay: (a) Stock buffer: 10 mM Tris-HCl, pH=7.5+150 mM NaCl, filtered, sterilized, and stored at 4° C.; and (b) 1× assay buffer, where the following ingredients were added fresh to stock buffer: 2 mM dithiothreitol (DTT), 0.0025% Tween-20, 0.1 mg/mL bovine serum albumin (BSA). The 1×Tb-Mcl-1+Cy5 Bim peptide solution was prepared by diluting the protein stock solution using the 1× assay buffer (b) to 25 pM Tb-Mcl-1 and 8 nM Cy5 Bim peptide.
Using the Acoustic ECHO, 100 nL of 100× test compound(s) were dispensed into individual wells of a white 384-well Perkin Elmer Proxiplate, for a final compound concentration of 1× and final DMSO concentration of 1%. Inhibitor control and neutral control (NC, 100 nL of 100% DMSO) were stamped into columns 23 and 24 of assay plate, respectively. Into each well of the plate was then dispensed 10 μL of the 1×Tb-Mcl-1+Cy5 Bim peptide solution. The plate was centrifuged with a cover plate at 1000 rpm for 1 minute, then incubated for 60 minutes at room temperature with plates covered.
The TR-FRET signal was read on an BMG PHERAStar FSX MicroPlate Reader at room temperature using the HTRF optic module (HTRF: excitation: 337 nm, light source: laser, emission A: 665 nm, emission B: 620 nm, integration start: 60 μs, integration time: 400 μs).
The BMG PHERAStar FSX MicroPlate Reader was used to measure fluorescence intensity at two emission wavelengths—665 nm and 620 nm—and report relative fluorescence units (RFU) for both emissions, as well as a ratio of the emissions (665 nm/620 nm)*10,000. The RFU values were normalized to percent inhibition as follows:
% inhibition(((NC−IC)−(compound−IC))/(NC−IC))*100
where IC (inhibitor control, low signal)=mean signal of 1× Tb-MCl-1+Cy5 Bim peptide+inhibitor control or 100% inhibition of Mcl-1; NC (neutral control, high signal)=mean signal 1×Tb-MCl-1+Cy5 Bim peptide with DMSO only or 0% inhibition
An 11-point dose response curve was generated to determine IC50 values (using GenData) based on the following equation:
where Y=% inhibition in the presence of X inhibitor concentration; Top=100% inhibition derived from the IC (mean signal of Mcl-1+inhibitor control); Bottom=0% inhibition derived from the NC (mean signal of Mcl-1+DMSO); Hillslope=Hill coefficient; and IC50=concentration of compound with 50% inhibition in relation to top/neutral control (NC).
Representative compounds of the present invention were tested according to the procedure as described above, with results as listed in the Table below (n.d. means not determined).

For test [2], the system named is MOLP-8 human multiple myeloma cell line. Kind of test: Caspase-Glo 3/7 apoptosis induction assay in MOLP-8 cells. Type of test: cell-based. As to conditions: caspase-3/7 activity, 2 hours at 37° C., averaged over all runs on all batches, read-out: MOLP8 AC50. The source says:
MCL-1 is a regulator of apoptosis and is highly over-expressed in tumor cells that escape cell death. The assay evaluates the cellular potency of small-molecule compounds targeting regulators of the apoptosis pathway, primarily MCL-1, Bfl-1, Bcl-2, and other proteins of the Bcl-2 family. Protein-protein inhibitors disrupting the interaction of anti-apoptotic regulators with BH3-domain proteins initiate apoptosis.
The Caspase-Glo® 3/7 Assay is a luminescent assay that measures caspase-3 and -7 activities in purified enzyme preparations or cultures of adherent or suspension cells. The assay provides a proluminescent caspase-3/7 substrate, which contains the tetrapeptide sequence DEVD. This substrate is cleaved to release aminoluciferin, a substrate of luciferase used in the production of light. Addition of the single Caspase-Glo® 3/7 Reagent in an “add-mix-measure” format results in cell lysis, followed by caspase cleavage of the substrate and generation of a “glow-type” luminescent signal.
This assay uses the MOLP-8 human multiple myeloma cell line, which is sensitive to MCL-1 inhibition.
Cell cultures were maintained between 0.2 and 2.0×10^6 cells/mL. The cells were harvested by collection in 50 mL conical tubes. The cells were then pelleted at 500 g for 5 mins before removing supernatant and resuspension in fresh pre-warmed culture medium. The cells were counted and diluted as needed.
The assay reagent was prepared by transferring the buffer solution to the substrate vial and mixing. The solution may be stored for up to 1 week at 4° C. with negligible loss of signal.
Compounds were delivered in assay-ready plates (Proxiplate) and stored at −20° C.
Assays always include 1 reference compound plate containing reference compounds. The plates were spotted with 40 nL of compounds (0.5% DMSO final in cells; serial dilution; 30 μM highest conc. 1/3 dilution, 10 doses, duplicates). The compounds were used at room temperature and 4 μL of pre-warmed media was added to all wells except column 2 and 23. The negative control was prepared by adding 1% DMSO in media. The positive control was prepared by adding the appropriate positive control compound in final concentration of 60 μM in media. The plate was prepared by adding 4 μL negative control to column 23, 4 μL positive control to column 2, and 4 μL cell suspension to all wells in the plate. The plate with cells was then incubated at 37° C. for 2 hours. The assay signal reagent is the Caspase-Glo solution described above, and 8 μL was added to all wells. The plates were then sealed and measured after 30 minutes.
The activity of a test compound was calculated as percent change in apoptosis induction as follows: […]

Where two headings read alike, the source gives them in different places.

Myeloid Cell Leukemia 1 (Mcl-1), sequence (Q07820 whole entry): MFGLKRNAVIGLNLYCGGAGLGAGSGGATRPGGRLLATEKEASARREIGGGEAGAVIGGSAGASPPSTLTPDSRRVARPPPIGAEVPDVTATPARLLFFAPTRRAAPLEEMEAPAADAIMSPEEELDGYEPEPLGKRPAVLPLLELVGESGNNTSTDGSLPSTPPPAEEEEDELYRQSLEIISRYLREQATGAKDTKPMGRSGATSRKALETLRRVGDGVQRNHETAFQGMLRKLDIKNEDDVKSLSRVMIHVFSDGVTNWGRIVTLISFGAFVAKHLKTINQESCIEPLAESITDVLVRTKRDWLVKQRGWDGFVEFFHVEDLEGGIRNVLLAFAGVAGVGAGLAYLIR

Consider `COc1nn(C)cc1C(=O)NS1(=O)=NC(=O)c2ccc3c(c2)N(C[C@@H]2CCO[C@H]2C(OC)/C(F)=C/C[C@H](C)C1)C[C@@]1(CCCc2cc(Cl)ccc21)CO3` (single isomer, unassigned) [Compound 26], for which the Ki in test [1] turned out to be 5.12 nM. For the same compound, the AC50 in test [2] was over 5000 nM.

Turning to `COc1nn(C)cc1C(=O)NS1(=O)=NC(=O)c2ccc3c(c2)N(C[C@@H]2CCO[C@H]2C(CN2CCN4CCOC[C@@H]4C2)(OC)/C(F)=C/C[C@H](C)C1)C[C@@]1(CCCc2cc(Cl)ccc21)CO3` (single isomer, unassigned) [Compound 27], the Ki in test [1] was 0.048 nM. The AC50 in test [2] is 424 nM.

For the compound `COc1nn(C)cc1C(=O)NS1(=O)=NC(=O)c2ccc3c(c2)N(C[C@@H]2CCO[C@H]2C(CN2CCN4CCOC[C@@H]4C2)(OC)/C(F)=C/C[C@H](C)C1)C[C@@]1(CCCc2cc(Cl)ccc21)CO3` (single isomer, unassigned) [Compound 28], in test [1], the Ki turned out to be 0.011 nM. Besides, the AC50 in test [2] is 23.2 nM.

As to `COc1nn(C)cc1C(=O)NS1(=O)=NC(=O)c2ccc3c(c2)N(C[C@@H]2CCO[C@H]2C(CN2CCN4CCOC[C@@H]4C2)(OC)/C(F)=C/C[C@H](C)C1)C[C@@]1(CCCc2cc(Cl)ccc21)CO3` (single isomer, unassigned) [Compound 29], the inhibitory constant (Ki) in test [1] came to 0.17 nM. In addition, the AC50 in test [2] is 702 nM.

In the case of `COc1nn(C)cc1C(=O)NS1(=O)=NC(=O)c2ccc3c(c2)N(C[C@@H]2CCO[C@H]2C(CN2CCN4CCOC[C@@H]4C2)(OC)/C(F)=C/C[C@H](C)C1)C[C@@]1(CCCc2cc(Cl)ccc21)CO3` (single isomer, unassigned) [Compound 30], the Ki in test [1] amounted to 0.014 nM. In test [2], the AC50 is 28.6 nM.

As to `CO[C@H]1/C(F)=C/C[C@H](C)[C@@H](C)S(=O)(=O)NC(=O)c2ccc3c(c2)N(C[C@@H]2CCO[C@H]21)C[C@@]1(CCCc2cc(Cl)ccc21)CO3` [Compound 1], the Ki in test [1] was 0.218 nM. Further, the AC50 in test [2] (Homo sapiens, MOLP-8, 2 h) turned out to be 191 nM.

`CO[C@@H]1/C(F)=C/C[C@H](C)[C@@H](C)S(=O)(=O)NC(=O)c2ccc3c(c2)N(C[C@@H]2CCO[C@H]21)C[C@@]1(CCCc2cc(Cl)ccc21)CO3` [Compound 2]: the inhibition constant (Ki) in test [1] amounted to 1.13 nM. In test [2] (Homo sapiens, MOLP-8, 2 h), the half-maximal activity concentration (AC50) stood at 1120 nM.

As to `CO[C@H]1/C=C/C[C@H](C)[C@@H](C)S(=O)(=O)NC(=O)c2ccc3c(c2)N(C[C@@H]2CCO[C@H]21)C[C@@]1(CCCc2cc(Cl)ccc21)CO3` [Compound 3], the Ki in test [1] was found to be 0.466 nM. The concentration at half-maximal activity (AC50) in test [2] (Homo sapiens, MOLP-8, 2 h) was 432 nM.

In the case of `COCC1/C=C/C[C@H](C)[C@@H](C)S(=O)(=O)NC(=O)c2ccc3c(c2)N(C[C@@H]2CCO[C@@H]12)C[C@@]1(CCCc2cc(Cl)ccc21)CO3` (some centres unmarked) [Compound 16], the Ki in test [1] turned out to be 0.673 nM. Besides, the half-maximal activity concentration (AC50) in test [2] (Homo sapiens, MOLP-8, 2 h) worked out at 1820 nM.

On to `COCC1/C=C/C[C@H](C)[C@@H](C)S(=O)(=O)NC(=O)c2ccc3c(c2)N(C[C@@H]2CCO[C@@H]12)C[C@@]1(CCCc2cc(Cl)ccc21)CO3` (some centres unmarked) [Compound 17], for which the Ki in test [1] amounted to 0.678 nM. Further, the half-maximal activity concentration (AC50) in test [2] is 2820 nM.
